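Grown in 96-well plates, cells were treated for 48 hours with each compound at five concentrations. Insufficient inhibition: endpoint recorded as highest concentration tested. At the GI50, growth is halved.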 The source made the active and inactive calls. No stated cut-off is given here; in the data, active = GI50 up to about 1.1 µM and inactive = higher.
Experiments:
Assay in all cases: NCI anticancer screen, dose series, 48 h
DU-145 = tested on: DU-145
MDA-MB-435 = tested on: MDA-MB-435
OVCAR-5 = tested on: OVCAR-5
SNB-19 = tested on: SNB-19
UACC-62 = tested on: UACC-62
MDA-MB-231 = tested on: MDA-MB-231
HOP-92 = tested on: HOP-92
SN12C = tested on: SN12C
SF-539 = tested on: SF-539
NCI/ADR-RES = tested on: NCI/ADR-RES
MCF7 = tested on: MCF7
BT-549 = tested on: BT-549
OVCAR-8 = tested on: OVCAR-8
HCT-15 = tested on: HCT-15
HCC 2998 = tested on: HCC 2998
TK-10 = tested on: TK-10
SK-MEL-28 = tested on: SK-MEL-28
SK-OV-3 = tested on: SK-OV-3
SK-MEL-2 = tested on: SK-MEL-2
HL-60 = tested on: HL-60
K562 = tested on: K562
UACC-257 = tested on: UACC-257
UO-31 = tested on: UO-31
NCI-H226 = tested on: NCI-H226
A549 = tested on: A549
HOP-62 = tested on: HOP-62
NCI-H460 = tested on: NCI-H460
PC-3 = tested on: PC-3
SW-620 = tested on: SW-620
786-0 = tested on: 786-0
RXF 393 = tested on: RXF 393
IGROV-1 = tested on: IGROV-1
EKVX = tested on: EKVX
M14 = tested on: M14
A498 = tested on: A498
SNB-75 = tested on: SNB-75
Hs-578T = tested on: Hs-578T
Malme-3M = tested on: Malme-3M
NCI-H522 = tested on: NCI-H522
LOX IMVI = tested on: LOX IMVI
SF-268 = tested on: SF-268
U-251 = tested on: U-251
COLO 205 = tested on: COLO 205
NCI-H23 = tested on: NCI-H23
ACHN = tested on: ACHN
T47D = tested on: T47D
HT-29 = tested on: HT-29
OVCAR-3 = tested on: OVCAR-3
HCT-116 = tested on: HCT-116
OVCAR-4 = tested on: OVCAR-4
SK-MEL-5 = tested on: SK-MEL-5
KM12 = tested on: KM12
CCRF-CEM = tested on: CCRF-CEM
SR = tested on: SR
CAKI-1 = tested on: CAKI-1
MDA-N = tested on: MDA-N
RPMI-8226 = tested on: RPMI-8226
SF-295 = tested on: SF-295
MOLT-4 = tested on: MOLT-4

Question: What does the source list for `CC1=CC2C(C(C)C)CC1C1C(=O)OC(=O)C21` (stereo not given)?
Answer: GI50 (DU-145): > 100 µM (inactive); GI50 (MDA-MB-435): > 100 µM (inactive); GI50 (OVCAR-5): > 100 µM (inactive); GI50 (SNB-19): > 100 µM (inactive); GI50 (UACC-62): > 100 µM (inactive); GI50 (MDA-MB-231): > 100 µM (inactive); GI50 (HOP-92): 65.5 µM (inactive); GI50 (SN12C): 79.3 µM (inactive); GI50 (SF-539): > 100 µM (inactive); GI50 (NCI/ADR-RES): 77.3 µM (inactive); GI50 (MCF7): > 100 µM (inactive); GI50 (BT-549): 84.1 µM (inactive); GI50 (OVCAR-8): 65.6 µM (inactive); GI50 (HCT-15): 58.2 µM; GI50 (HCC 2998): 30.9 µM (inactive); GI50 (TK-10): 45.8 µM (inactive); GI50 (SK-MEL-28): > 100 µM (inactive); GI50 (SK-OV-3): > 100 µM (inactive); GI50 (SK-MEL-2): > 100 µM (inactive); GI50 (HL-60): 23.3 µM (inactive); GI50 (K562): 39.7 µM (inactive); GI50 (UACC-257): > 100 µM (inactive); GI50 (UO-31): > 100 µM (inactive); GI50 (NCI-H226): > 100 µM (inactive); GI50 (A549): > 100 µM (inactive); GI50 (HOP-62): 99.3 µM (inactive); GI50 (NCI-H460): > 100 µM (inactive); GI50 (PC-3): 76.6 µM (inactive); GI50 (SW-620): 86.9 µM (inactive); GI50 (786-0): > 100 µM (inactive); GI50 (RXF 393): > 100 µM (inactive); GI50 (IGROV-1): 14.4 µM (inactive); GI50 (EKVX): > 100 µM (inactive); GI50 (M14): > 100 µM (inactive); GI50 (A498): > 100 µM (inactive); GI50 (SNB-75): > 100 µM (inactive); GI50 (Hs-578T): 75.3 µM (inactive); GI50 (Malme-3M): 52 µM (inactive); GI50 (NCI-H522): 52.7 µM (inactive); GI50 (LOX IMVI): > 100 µM (inactive); GI50 (SF-268): > 100 µM (inactive); GI50 (U-251): 64.1 µM (inactive); GI50 (COLO 205): > 100 µM (inactive); GI50 (NCI-H23): > 100 µM (inactive); GI50 (ACHN): > 100 µM (inactive); GI50 (T47D): 49.8 µM (inactive); GI50 (HT-29): > 100 µM (inactive); GI50 (OVCAR-3): 23.2 µM (inactive); GI50 (HCT-116): 76.7 µM (inactive); GI50 (OVCAR-4): 91 µM (inactive); GI50 (SK-MEL-5): 85.5 µM (inactive)

Question: `COC(=O)C1(O)c2ccccc2N=C2C(=O)c3ccccc3N21` (stereo not given) [METHYLISATOID] was tested. Which GI50 (DU-145) did it give?
Answer: > 100 µM (inactive)

Question: What about the GI50 (KM12) of the same molecule?
Answer: > 100 µM (inactive)

Question: And the GI50 (MDA-MB-435)?
Answer: 12.2 µM (inactive)

Question: What about the GI50 (OVCAR-5) of the same molecule?
Answer: > 100 µM (inactive)

Question: And the GI50 (CCRF-CEM)?
Answer: > 100 µM (inactive)

Question: And the GI50 (SR)?
Answer: > 100 µM (inactive)

Question: What about the GI50 (MDA-MB-231) of the same molecule?
Answer: 41.6 µM (inactive)

Question: And the GI50 (HOP-92)?
Answer: > 100 µM (inactive)

Question: And the GI50 (SN12C)?
Answer: > 100 µM (inactive)

Question: What about the GI50 (SF-539) of the same molecule?
Answer: > 100 µM (inactive)

Question: What about the GI50 (NCI/ADR-RES) of the same molecule?
Answer: > 100 µM (inactive)

Question: What about the GI50 (MCF7) of the same molecule?
Answer: > 100 µM (inactive)

Question: And the GI50 (CAKI-1)?
Answer: > 100 µM (inactive)

Question: And the GI50 (MDA-N)?
Answer: 15.7 µM (inactive)

Question: And the GI50 (BT-549)?
Answer: > 100 µM (inactive)

Question: What about the GI50 (OVCAR-8) of the same molecule?
Answer: > 100 µM (inactive)

Question: What about the GI50 (HCT-15) of the same molecule?
Answer: > 100 µM

Question: What about the GI50 (HCC 2998) of the same molecule?
Answer: > 100 µM (inactive)

Question: And the GI50 (TK-10)?
Answer: > 100 µM (inactive)

Question: What about the GI50 (SK-MEL-28) of the same molecule?
Answer: > 100 µM (inactive)

Question: What about the GI50 (SK-MEL-2) of the same molecule?
Answer: > 100 µM (inactive)

Question: And the GI50 (HL-60)?
Answer: > 100 µM (inactive)

Question: What about the GI50 (K562) of the same molecule?
Answer: > 100 µM (inactive)

Question: And the GI50 (UACC-257)?
Answer: 23.8 µM (inactive)

Question: And the GI50 (UO-31)?
Answer: > 100 µM (inactive)

Question: And the GI50 (RPMI-8226)?
Answer: > 100 µM (inactive)

Question: And the GI50 (NCI-H226)?
Answer: > 100 µM (inactive)

Question: And the GI50 (A549)?
Answer: > 100 µM (inactive)

Question: And the GI50 (HOP-62)?
Answer: > 100 µM (inactive)

Question: And the GI50 (NCI-H460)?
Answer: > 100 µM (inactive)

Question: What about the GI50 (PC-3) of the same molecule?
Answer: 36.6 µM (inactive)

Question: And the GI50 (SW-620)?
Answer: > 100 µM (inactive)

Question: What about the GI50 (786-0) of the same molecule?
Answer: > 100 µM (inactive)

Question: And the GI50 (RXF 393)?
Answer: > 100 µM (inactive)

Question: What about the GI50 (IGROV-1) of the same molecule?
Answer: > 100 µM (inactive)

Question: What about the GI50 (EKVX) of the same molecule?
Answer: > 100 µM (inactive)

Question: What about the GI50 (A498) of the same molecule?
Answer: > 100 µM (inactive)

Question: What about the GI50 (SNB-75) of the same molecule?
Answer: > 100 µM (inactive)

Question: And the GI50 (Hs-578T)?
Answer: > 100 µM (inactive)

Question: What about the GI50 (Malme-3M) of the same molecule?
Answer: 51.8 µM (inactive)

Question: What about the GI50 (NCI-H522) of the same molecule?
Answer: > 100 µM (inactive)

Question: What about the GI50 (LOX IMVI) of the same molecule?
Answer: 59.7 µM (inactive)

Question: And the GI50 (SF-268)?
Answer: > 100 µM (inactive)

Question: What about the GI50 (U-251) of the same molecule?
Answer: > 100 µM (inactive)

Question: And the GI50 (COLO 205)?
Answer: > 100 µM (inactive)

Question: What about the GI50 (NCI-H23) of the same molecule?
Answer: > 100 µM (inactive)

Question: What about the GI50 (SF-295) of the same molecule?
Answer: > 100 µM (inactive)

Question: And the GI50 (ACHN)?
Answer: > 100 µM (inactive)

Question: And the GI50 (MOLT-4)?
Answer: > 100 µM (inactive)

Question: And the GI50 (HT-29)?
Answer: > 100 µM (inactive)

Question: What about the GI50 (OVCAR-3) of the same molecule?
Answer: 45.3 µM (inactive)

Question: What about the GI50 (HCT-116) of the same molecule?
Answer: > 100 µM (inactive)

Question: What about the GI50 (OVCAR-4) of the same molecule?
Answer: > 100 µM (inactive)

Question: And the GI50 (SK-MEL-5)?
Answer: 49.8 µM (inactive)
